The source of these data is patent publication US12221432B2, “Estrogen receptor antagonist” (CHIA TAI TIANQING PHARMACEUTICAL GROUP CO., LTD., priority 2018, dated 2025).

The structures appear in SMILES notation.

One data set concerns uterine growth. In words: Uterine wet weight inhibition in immature rats. Particulars: oral, three consecutive days. The class given is in vivo, female immature rats. As for the experimental part: This study was intended to evaluate the uterine growth inhibition of compounds of the present application in female immature rats aged 18-21 days (provided by Beijing Vital River Laboratory Animal Technology Co., Ltd., with the number of test animals in each experimental group being 5). In this study, 18-day-old female immature rats were given oral doses of 10 mg/kg of the compound of the present application and 0.1 mg/kg of estradiol for three consecutive days, the control group was given oral doses of 0.1 mg/kg of estradiol for three consecutive days, and the blank group was given no drugs except the corresponding vehicle. Three days after the administration, the rats were sacrificed, and the uteruses of the rats were weighed to observe the effect of the test compound on the uterine growth inhibition in rats. Inhibition rate=100*[(VehicleEE−Cpd)/(VehicleEE−Vehicle)], wherein VehicleEE is uterine wet weight in the control group (oral doses of 0.1 mg/kg estradiol); Cpd is the uterine wet weight of the treatment group; Vehicle is the uterine wet weight of rats in the blank group.

The next data set deals with MCF-7 cells. In words: MCF-7 cell proliferation inhibition. The class given is cell-based. Particulars: 6 days incubation, CellTiter-Glo; read-out: IC50 for MCF-7 cell proliferation inhibition. As for the experimental part: EMEM medium was purchased from Wisent, and fetal bovine serum was purchased from Biosera. Promega CellTiter-Glo reagent. MCF-7 cells were purchased from the Cell Bank of Type Culture Collection Committee of the Chinese Academy of Sciences. Nivo5 multi-marker analyzer (PerkinElmer).
MCF-7 cells were seeded in a white 384-well plate at 600 cells/[…] suspension/well. The plate was incubated in a CO2 incubator overnight.
On the day of treatment, a day 0 plate coated under the same conditions the day before was taken, centrifuged to remove the medium, added with 25 microliters of Promega CellTiter-Glo reagent to each well, and incubated at room temperature for 10 minutes to stabilize the luminescence signal. Measures were read by PerkinElmer Nivo multi-marker analyzer as an initial value for 0% inhibition.
The test compounds were serially 5-fold diluted to the 10th concentration with a multichannel pipette, i.e., from 2 millimoles to […], and the experiments were set up in duplicate. 47.5 microliters of medium was added to the intermediate plate, 2.5 microliters of serially diluted compounds were transferred to corresponding wells of the intermediate plate, and after mixing, 5 microliters of the mixture per well was transferred to the cell plate. The plate was incubated in a CO2 incubator for 6 days.
After 6 days of co-incubation with the compounds, the plate was centrifuged to remove the medium, added with 25 microliters of Promega CellTiter-Glo reagent to each well, and incubated at room temperature for 10 minutes to stabilize the luminescence signal. Measures were read by PerkinElmer Nivo multi-marker analyzer.
The original data was converted into inhibition rate by the formula: % inhibition=((RFUCmpd−AVER(RFUNeg.Ctrl))/((AVER(RFUDay0)−AVER(RFUNeg.Ctrl))×100%. Curve fitting was conducted and IC50 was calculated.
For orientation: Cellular ATP, detected with luciferase, serves as a proxy for viable cell number.

In a further data set the test system is breast cancer. Particulars: intramuscular injection, breast cancer patients; cited from earlier work.
For data set [1] the following is noted: cited from earlier work.

As for `CC/C(=C(/c1ccc(OCCNC/C=C/C(=O)N(C)C)nc1)c1[nH]c2ccccc2c1Cl)c1ccc(F)cc1Cl` [Compound 1], in the data set on uterine growth (10 mg/kg + estradiol 0.1 mg/kg), the Inhibition rate is 75% and the Uterine wet weight is listed as 0.0672 g. Moreover, in the data set with MCF-7 cells, the IC50 was 1.41 nM.

Compound `C[C@]12CC[C@@H]3c4ccc(O)cc4CC[C@H]3[C@@H]1CC[C@@H]2O` [Estradiol, estradiol, reference compound] returned a Uterine wet weight with uterine growth (estradiol alone (control group)) of 0.1200 g.

With `C[C@]12CC[C@@H]3c4ccc(O)cc4C[C@@H](CCCCCCCCC[S+]([O-])CCCC(F)(F)C(F)(F)F)[C@H]3[C@@H]1CC[C@@H]2O` (stereo partly drawn) [fulvestrant], the clinical response rate result in the data set on breast cancer was “about 50%”. In addition, in data set [1], the “bioavailability via oral administration” value is given as “zero”.
